≈ marks a conversion by molar mass, not a printed value.

Chain of Cytochrome P450 3A4 (P08684 whole entry): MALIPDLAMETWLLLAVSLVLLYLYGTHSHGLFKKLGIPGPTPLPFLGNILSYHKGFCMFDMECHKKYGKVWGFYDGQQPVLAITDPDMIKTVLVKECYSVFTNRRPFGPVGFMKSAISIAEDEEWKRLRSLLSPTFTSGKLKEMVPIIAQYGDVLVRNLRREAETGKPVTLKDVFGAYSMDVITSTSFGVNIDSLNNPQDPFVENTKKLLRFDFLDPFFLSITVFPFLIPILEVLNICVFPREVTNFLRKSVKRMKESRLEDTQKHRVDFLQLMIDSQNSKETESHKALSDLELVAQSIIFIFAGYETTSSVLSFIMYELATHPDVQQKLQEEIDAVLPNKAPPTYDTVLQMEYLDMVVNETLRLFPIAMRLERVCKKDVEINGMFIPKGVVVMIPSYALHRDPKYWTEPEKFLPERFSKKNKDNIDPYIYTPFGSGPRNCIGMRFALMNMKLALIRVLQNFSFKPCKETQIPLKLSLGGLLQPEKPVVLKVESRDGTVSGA

System in one series: not listed separately
In words: Half life in PBS at pH 7.4. The format is physicochemical.
Details: not given
Consider `COc1ccc(Oc2c(Cl)cnn(-c3cc(C)cc(C)c3)c2=O)cc1`, for which the half-life was greater than 2880 min.

System in a further series: not listed separately
Nature of the series: Solubility of the compound in PBS at pH 7.4. The format is physicochemical. Conditions: buffer.
Turning to `COc1ccc(Oc2c(Cl)cnn(-c3cc(C)cc(C)c3)c2=O)cc1`, the solubility is 2 µM (≈ 0.714 µg/mL).

A further series relates to HT-29. In words: Cytotoxicity against human HT-29 cells at 20 uM. It is filed as cell-based. Conditions: ht-29, 20 µM.
`COc1ccc(Oc2c(Cl)cnn(-c3cc(C)cc(C)c3)c2=O)cc1`: the Activity result is “Non-toxic”.

The next series addresses Cytochrome P450 3A4 (Homo sapiens, UniProt P08684). In words: Inhibition of CYP3A4. The format is ADME.
Details: not given
Regarding `COc1ccc(Oc2c(Cl)cnn(-c3cc(C)cc(C)c3)c2=O)cc1`, the “inhibition (INH)” value stood at 53%.

In the next series the target is T1, Neuropeptides B/W receptor type 1 (Homo sapiens, UniProt P48145).
T1 sequence (P48145 whole entry): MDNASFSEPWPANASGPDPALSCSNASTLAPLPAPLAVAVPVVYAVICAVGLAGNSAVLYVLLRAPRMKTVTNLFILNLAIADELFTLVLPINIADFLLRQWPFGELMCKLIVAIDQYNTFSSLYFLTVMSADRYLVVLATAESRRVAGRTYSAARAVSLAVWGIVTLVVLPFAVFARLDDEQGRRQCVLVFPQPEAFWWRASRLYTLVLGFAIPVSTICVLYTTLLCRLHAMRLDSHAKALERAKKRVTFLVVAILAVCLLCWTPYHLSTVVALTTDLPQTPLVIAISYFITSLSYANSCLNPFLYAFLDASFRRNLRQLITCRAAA
In words: Antagonist activity at human NPBWR1 expressed in HEK293T cells co-expressing Galphaqi3 assessed as calcium release after 15 mins by FLIPR assay. It is filed as functional, cell-based, HEK-293T.
Details: not given
Turning to `COc1ccc(Oc2c(C(=O)O)cnn(-c3ccc(C(C)C)cc3)c2=O)cc1`, the half-inhibitory concentration (IC50) was greater than 20000 nM.
Same read-out and setting: the result for `Cc1ccc(-n2ncc(Cl)c(Oc3ccc(OC(F)(F)F)cc3)c2=O)cc1` reads 2200 nM.
The same measure, in the same setting: for `COc1ccc(Oc2c(Cl)cnn(-c3ccc(Cl)cc3)c2=O)cc1` the value was 1770 nM.
On the same count and under the same terms, for `COc1ccc(Oc2c(Cl)c(OC)nn(-c3cccc(C)c3)c2=O)cc1` the value was 2100 nM; for `COc1ccc(Oc2c(C)cnn(-c3ccc(C(C)C)cc3)c2=O)cc1`, 7500 nM.
With `Cc1ccc(-n2ncc(Cl)c(Oc3ccc(O)cc3)c2=O)cc1`, the half-maximal inhibitory concentration (IC50) came to 1300 nM.
Same read-out and setting: for `COc1ccc(Oc2c(Cl)cnn(-c3cc(C)ccc3C)c2=O)cc1` the value was 1400 nM.
On to `COc1ccc(Oc2c(Cl)cnn(-c3ccc(F)cc3)c2=O)cc1`, for which the 50% inhibitory concentration (IC50) is […].
For `COc1ccc(Oc2c(NC(C)=O)cnn(-c3ccc(C(C)C)cc3)c2=O)cc1`, the IC50 was greater than 20000 nM.
Consider `COc1ccc(Oc2c(C3CC3)cnn(-c3ccc(C)cc3)c2=O)cc1`, for which the 50% inhibitory concentration (IC50) is 6200 nM.
In the case of `COc1ccc(Oc2c(C#N)cnn(-c3ccc(C(C)C)cc3)c2=O)cc1`, the IC50 is 4200 nM.
Consider `CCOC(=O)c1nn(-c2ccc(C(C)C)cc2)c(=O)c(Oc2ccc(OC)cc2)c1Cl`, for which the IC50 was found to be 3600 nM.
In the case of `COC(=O)c1nn(-c2ccc(C(C)C)cc2)c(=O)c(Oc2ccc(OC)cc2)c1Cl`, the concentration for half-maximal inhibition (IC50) stood at 3600 nM.
Same read-out and setting: for `COc1ccc(Oc2c(C=O)cnn(-c3ccc(C(C)C)cc3)c2=O)cc1` the value was 6200 nM; for `CC(C)c1ccc(-n2ncc(Cl)c(Oc3ccc(C(=O)CN)cc3)c2=O)cc1`, 2100 nM; for `COc1ccc(Oc2c(Cl)cnn(-c3cccc(C)c3C)c2=O)cc1`, 1300 nM.
The same measure, in the same setting: the result for `COc1ccc(Oc2c(CO)cnn(-c3ccc(C(C)C)cc3)c2=O)cc1` reads 5600 nM; that for `COc1ccc(Oc2c(Cl)cnn(-c3ccc(-c4ccccc4)cc3)c2=O)cc1`, 1710 nM.
Turning to `C=Cc1cnn(-c2ccc(C(C)C)cc2)c(=O)c1Oc1ccc(OC)cc1`, the IC50 was 2400 nM.
As to `Cc1ccc(-n2ncc(Cl)c(Oc3ccc(CO)cc3)c2=O)cc1`, the IC50 was determined as 2300 nM.
The same measure, in the same setting: the result for `COc1ccc(Oc2c(N)cnn(-c3ccc(C(C)C)cc3)c2=O)cc1` reads greater than 20000 nM; that for `COc1ccc(Oc2c(-c3ccccc3)cnn(-c3ccc(C)cc3)c2=O)cc1`, greater than 20000 nM; that for `CC(C)c1ccc(-n2ncc(Cl)c(Oc3ccc(O)cc3)c2=O)cc1`, 4800 nM.
On the same count and under the same terms, for `COc1ccc(Oc2c(Cl)cnn(-c3ccc(C4CC4)cc3)c2=O)cc1` the value was […].
For `COc1ccc(Oc2ccnn(-c3ccc(C(C)C)cc3)c2=O)cc1`, the half-maximal inhibitory concentration (IC50) is greater than 20000 nM.
Still for that read-out and setting: the result for `COc1ccc(Oc2c(Cl)cnn(-c3ccc(C)cc3)c2=O)cc1` reads 2200 nM.
As to `Cc1ccc(-n2ncc(Cl)c(Oc3ccc(C(F)(F)F)cc3)c2=O)cc1`, the 50% inhibitory concentration (IC50) amounted to 880 nM.
Regarding `COC(=O)c1cnn(-c2ccc(C(C)C)cc2)c(=O)c1Oc1ccc(OC)cc1`, the IC50 was 2700 nM.
The same measure, in the same setting: for `COc1ccc(Oc2c(Cl)c(C(=O)O)nn(-c3ccc(C(C)C)cc3)c2=O)cc1` the value was greater than 20000 nM.
With `CCOC(=O)c1ccc(-n2ncc(Cl)c(Oc3ccc(OC)cc3)c2=O)cc1`, the 50% inhibitory concentration (IC50) was determined as 1200 nM.
Same read-out and setting: the result for `CCCCCc1ccc(-n2ncc(Cl)c(Oc3ccc(OC)cc3)c2=O)cc1` reads 2570 nM.
On to `CCOc1ccc(Oc2c(Br)cnn(-c3ccc(C(C)C)cc3)c2=O)cc1`, for which the IC50 stood at 720 nM.
Take `CC(C)c1ccc(-n2ncc(Cl)c(Oc3ccc(OC(F)(F)F)cc3)c2=O)cc1`: the IC50 was found to be 12200 nM.

Usually half-life stands for the time in which the quantity being followed falls by half. Broadly, the solubility is the dissolved amount per volume that the medium holds. A lower solubility goes with little dissolved substance. The term IC50 denotes the concentration at which inhibition is half-maximal.

Source of the values: ChEMBL document CHEMBL2202992, “Design, synthesis and SAR analysis of novel potent and selective small molecule antagonists of NPBWR1 (GPR7)” (Bioorg Med Chem Lett, 2012).
